Experimental data published in ChEMBL document CHEMBL3351364 (J Med Chem, 2014).

How the values were obtained:
[1] = Solubility of the compound in water at pH 4; assay type: physicochemical
[2] = Solubility of the compound in water at pH 7.4; assay type: physicochemical
[3] = Solubility of the compound in alcohol; assay type: physicochemical
[4] = Solubility of the compound in dimethyl sulfoxide; assay type: physicochemical
West Nile virus = assay: Antiviral activity against West Nile virus NY99 infected in african green monkey Vero-76 cells after 3 days; assay type: functional, organism-based; details: NY99, Vero 76, 72 h
[5] = Cytotoxicity against West Nile virus NY99 infected african green monkey Vero 76 cells after 3 days; assay type: cell-based; details: chlorocebus sabaeus, Vero 76 cells infected with West Nile virus NY99
Yellow fever virus = assay: Antiviral activity against Yellow fever virus infected in african green monkey Vero-76 cells after 3 days; assay type: functional, organism-based; details: Vero 76, 72 h
[6] = Cytotoxicity against Yellow fever virus infected african green monkey Vero 76 cells after 3 days; assay type: cell-based; details: chlorocebus sabaeus, Vero 76 cells infected with Yellow fever virus
Hepatitis C virus [7] = assay: Antiviral activity against HCV genotype 4a; assay type: functional, Hepacivirus hominis
Dengue virus = assay: Antiviral activity against Dengue virus infected in african green monkey Vero-76 cells after 3 days; assay type: functional, organism-based; details: Vero 76, 72 h
[8] = Cytotoxicity against Dengue virus infected african green monkey Vero 76 cells after 3 days; assay type: cell-based; details: chlorocebus sabaeus, Vero 76 cells infected with Dengue virus
Hepatitis C virus [9] = assay: Antiviral activity against HCV genotype 2a; assay type: functional, Hepacivirus hominis
Hepatitis C virus [10] = assay: Antiviral activity against HCV genotype 1a; assay type: functional, Hepacivirus hominis; details: subtype 1a
[11] = Half life in Sprague-Dawley rat at 11.2 mg/kg, po; assay type: ADME, organism-based; design: dose 11.2 mg/kg, route oral; details: in vivo
[12] = Oral bioavailability in Sprague-Dawley rat at 11.2 mg/kg; assay type: ADME, organism-based; details: in vivo
[13] = Half life in Sprague-Dawley rat at 2.8 mg/kg, iv as 30 mins infusion; assay type: ADME, organism-based; design: dose 2.8 mg/kg, route intravenous; details: in vivo
[14] = Half life in beagle dog at 10 mg/kg, po; assay type: ADME, organism-based, Canis lupus familiaris; design: dose 10 mg/kg, route oral; details: in vivo
[15] = Half life in beagle dog at 5 mg/kg, iv as 30 mins infusion; assay type: ADME, organism-based, Canis lupus familiaris; design: dose 5 mg/kg, route intravenous; details: in vivo
[16] = Oral bioavailability in beagle dog at 10 mg/kg; assay type: ADME, organism-based, Canis lupus familiaris; details: in vivo
Cytochrome P450 1A2 = target: T1, Cytochrome P450 1A2 (Homo sapiens, UniProt P05177); assay: Inhibition of human liver CYP1A2; assay type: ADME
T1 sequence (P05177 whole entry): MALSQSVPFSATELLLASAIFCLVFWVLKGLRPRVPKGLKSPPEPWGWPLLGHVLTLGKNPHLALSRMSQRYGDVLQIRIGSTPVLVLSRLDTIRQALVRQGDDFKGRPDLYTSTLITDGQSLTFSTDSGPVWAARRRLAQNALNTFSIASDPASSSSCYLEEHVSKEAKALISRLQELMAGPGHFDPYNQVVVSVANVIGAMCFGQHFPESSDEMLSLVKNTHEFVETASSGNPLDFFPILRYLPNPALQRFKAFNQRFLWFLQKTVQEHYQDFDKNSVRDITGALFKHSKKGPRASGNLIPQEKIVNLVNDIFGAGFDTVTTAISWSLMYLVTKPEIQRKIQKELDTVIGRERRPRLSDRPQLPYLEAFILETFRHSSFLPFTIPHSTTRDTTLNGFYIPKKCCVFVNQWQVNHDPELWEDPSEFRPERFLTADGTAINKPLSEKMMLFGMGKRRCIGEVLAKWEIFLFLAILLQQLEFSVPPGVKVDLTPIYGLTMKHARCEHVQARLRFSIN

Cytochrome P450 2C9 = Cytochrome P450 2C9 (Homo sapiens, UniProt P11712); assay: Inhibition of human liver CYP2C9; assay type: ADME
Cytochrome P450 2C9, sequence (P11712 whole entry): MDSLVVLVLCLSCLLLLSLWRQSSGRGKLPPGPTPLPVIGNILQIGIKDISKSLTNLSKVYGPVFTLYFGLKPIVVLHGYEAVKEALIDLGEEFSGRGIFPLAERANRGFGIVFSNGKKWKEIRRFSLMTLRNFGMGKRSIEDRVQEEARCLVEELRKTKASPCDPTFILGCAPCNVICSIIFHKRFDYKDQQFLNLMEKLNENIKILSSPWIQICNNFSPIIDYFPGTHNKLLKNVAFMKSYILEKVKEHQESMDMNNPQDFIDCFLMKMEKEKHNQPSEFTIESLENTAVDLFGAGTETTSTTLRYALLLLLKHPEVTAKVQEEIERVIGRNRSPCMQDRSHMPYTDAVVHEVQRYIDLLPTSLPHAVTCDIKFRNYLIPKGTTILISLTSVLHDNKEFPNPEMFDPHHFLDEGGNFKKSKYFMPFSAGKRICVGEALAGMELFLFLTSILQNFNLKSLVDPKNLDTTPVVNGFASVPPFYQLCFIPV

Cytochrome P450 2C19 = Cytochrome P450 2C19 (Homo sapiens, UniProt P33261); assay: Inhibition of human liver CYP2C19; assay type: ADME
Cytochrome P450 2C19, sequence (P33261 whole entry): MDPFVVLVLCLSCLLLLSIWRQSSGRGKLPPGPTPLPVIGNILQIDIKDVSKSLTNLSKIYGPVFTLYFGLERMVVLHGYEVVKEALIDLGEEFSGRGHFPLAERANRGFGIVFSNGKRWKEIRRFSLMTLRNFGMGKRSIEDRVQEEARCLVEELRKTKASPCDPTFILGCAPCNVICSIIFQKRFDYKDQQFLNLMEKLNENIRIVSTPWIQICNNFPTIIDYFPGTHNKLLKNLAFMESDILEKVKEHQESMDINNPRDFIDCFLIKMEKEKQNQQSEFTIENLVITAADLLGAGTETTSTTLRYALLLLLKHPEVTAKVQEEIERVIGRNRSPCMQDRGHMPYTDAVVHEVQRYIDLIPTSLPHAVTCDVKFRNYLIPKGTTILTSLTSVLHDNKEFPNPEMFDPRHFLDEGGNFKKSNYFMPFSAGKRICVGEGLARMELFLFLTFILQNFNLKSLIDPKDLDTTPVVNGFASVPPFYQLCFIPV

Cytochrome P450 2D6 = Cytochrome P450 2D6 (Homo sapiens, UniProt P10635); assay: Inhibition of human liver CYP2D6; assay type: ADME
Cytochrome P450 2D6, sequence (P10635 whole entry): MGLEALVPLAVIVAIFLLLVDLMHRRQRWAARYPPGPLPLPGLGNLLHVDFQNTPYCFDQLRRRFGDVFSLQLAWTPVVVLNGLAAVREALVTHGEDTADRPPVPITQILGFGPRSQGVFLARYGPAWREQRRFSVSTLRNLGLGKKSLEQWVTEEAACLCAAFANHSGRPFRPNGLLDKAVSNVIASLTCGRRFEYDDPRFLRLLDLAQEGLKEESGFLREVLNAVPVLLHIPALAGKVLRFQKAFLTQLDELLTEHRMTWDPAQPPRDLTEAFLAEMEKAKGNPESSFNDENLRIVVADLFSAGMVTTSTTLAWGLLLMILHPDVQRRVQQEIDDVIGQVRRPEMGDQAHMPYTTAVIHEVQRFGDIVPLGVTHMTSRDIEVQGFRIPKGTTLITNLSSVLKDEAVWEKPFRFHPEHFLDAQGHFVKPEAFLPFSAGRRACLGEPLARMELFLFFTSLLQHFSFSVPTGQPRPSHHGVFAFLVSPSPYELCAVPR

Cytochrome P450 3A4 = Cytochrome P450 3A4 (Homo sapiens, UniProt P08684); assay: Inhibition of human liver CYP3A4; assay type: ADME
Cytochrome P450 3A4, sequence (P08684 whole entry): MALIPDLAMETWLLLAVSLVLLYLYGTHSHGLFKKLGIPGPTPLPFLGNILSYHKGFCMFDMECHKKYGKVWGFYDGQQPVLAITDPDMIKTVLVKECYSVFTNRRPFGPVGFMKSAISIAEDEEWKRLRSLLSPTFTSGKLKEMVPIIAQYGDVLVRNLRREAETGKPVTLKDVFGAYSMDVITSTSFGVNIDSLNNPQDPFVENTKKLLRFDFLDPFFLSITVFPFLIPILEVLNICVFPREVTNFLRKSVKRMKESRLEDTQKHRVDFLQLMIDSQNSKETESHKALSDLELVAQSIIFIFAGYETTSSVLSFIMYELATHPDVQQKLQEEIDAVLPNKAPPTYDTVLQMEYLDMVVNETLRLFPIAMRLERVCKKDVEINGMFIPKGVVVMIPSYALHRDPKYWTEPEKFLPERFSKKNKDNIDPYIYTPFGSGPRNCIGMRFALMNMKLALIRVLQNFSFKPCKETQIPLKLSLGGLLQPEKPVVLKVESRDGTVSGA

[17] = Metabolic stability in rat liver microsomes assessed as residual compound at 1 uM after 60 mins; assay type: ADME; details: read-out: Stability
[18] = Metabolic stability in dog liver microsomes assessed as residual compound at 1 uM after 60 mins; assay type: ADME, Canis lupus familiaris; details: read-out: Stability
[19] = Metabolic stability in human liver microsomes assessed as residual compound at 1 uM after 60 mins; assay type: ADME; details: read-out: Stability
[20] = target: Voltage-gated inwardly rectifying potassium channel KCNH2 (Homo sapiens, UniProt Q12809); assay: Binding affinity to human ERG at 3 to 30 uM
Voltage-gated inwardly rectifying potassium channel KCNH2, sequence (Q12809 whole entry): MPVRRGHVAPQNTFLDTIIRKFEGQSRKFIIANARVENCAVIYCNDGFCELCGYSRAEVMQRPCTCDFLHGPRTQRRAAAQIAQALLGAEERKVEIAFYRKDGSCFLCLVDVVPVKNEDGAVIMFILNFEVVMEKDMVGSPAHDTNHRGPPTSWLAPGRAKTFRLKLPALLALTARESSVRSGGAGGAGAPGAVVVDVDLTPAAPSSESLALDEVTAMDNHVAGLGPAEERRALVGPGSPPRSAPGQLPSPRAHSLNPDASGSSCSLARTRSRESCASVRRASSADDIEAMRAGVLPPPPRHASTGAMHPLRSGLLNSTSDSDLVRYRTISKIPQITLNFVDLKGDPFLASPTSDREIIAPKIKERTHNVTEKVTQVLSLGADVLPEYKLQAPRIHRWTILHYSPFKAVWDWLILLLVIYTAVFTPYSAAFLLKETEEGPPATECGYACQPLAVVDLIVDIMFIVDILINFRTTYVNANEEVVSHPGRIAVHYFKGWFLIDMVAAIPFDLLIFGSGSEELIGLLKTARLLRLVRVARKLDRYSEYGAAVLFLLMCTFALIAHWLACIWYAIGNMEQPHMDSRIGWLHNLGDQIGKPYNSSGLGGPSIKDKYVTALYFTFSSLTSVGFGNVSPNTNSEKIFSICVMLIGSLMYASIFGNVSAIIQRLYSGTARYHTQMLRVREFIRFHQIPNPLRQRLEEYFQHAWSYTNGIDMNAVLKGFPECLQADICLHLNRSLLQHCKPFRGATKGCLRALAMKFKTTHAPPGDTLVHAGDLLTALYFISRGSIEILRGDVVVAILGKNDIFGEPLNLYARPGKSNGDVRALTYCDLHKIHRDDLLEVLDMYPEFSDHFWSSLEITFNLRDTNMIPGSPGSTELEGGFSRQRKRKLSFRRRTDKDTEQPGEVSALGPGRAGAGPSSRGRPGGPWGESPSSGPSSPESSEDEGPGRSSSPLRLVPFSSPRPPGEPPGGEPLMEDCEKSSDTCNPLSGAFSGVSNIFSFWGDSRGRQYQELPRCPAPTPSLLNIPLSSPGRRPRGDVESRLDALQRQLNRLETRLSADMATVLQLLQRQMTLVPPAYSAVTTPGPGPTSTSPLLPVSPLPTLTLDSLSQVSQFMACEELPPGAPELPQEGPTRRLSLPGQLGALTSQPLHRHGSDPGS

[21] = Toxicity in ip dosed SHK mouse; assay type: organism-based; details: in vivo
[22] = (§1) Toxicity in po dosed male SHK mouse; assay type: organism-based; details: male, SHK, in vivo
Mus musculus [23] = assay: as §1; assay type: organism-based; details: in vivo
[24] = (§2) Toxicity in po dosed female SHK mouse; assay type: organism-based; details: female, SHK, in vivo
Mus musculus [25] = assay: as §2; assay type: organism-based; details: in vivo
[26] = (§3) Toxicity in ip dosed male Wistar rat; assay type: organism-based; details: male, Wistar, in vivo
Rattus norvegicus [27] = assay: as §3; assay type: organism-based; details: in vivo
[28] = (§4) Toxicity in ip dosed female Wistar rat; assay type: organism-based; details: female, Wistar, in vivo
Rattus norvegicus [29] = assay: as §4; assay type: organism-based; details: in vivo
[30] = (§5) Toxicity in ip dosed Wistar rat; assay type: organism-based; details: Wistar, in vivo
Rattus norvegicus [31] = assay: as §5; assay type: organism-based; details: in vivo
Canis familiaris = species on record: Canis familiaris; assay: Toxicity in dog by 6-weeks study; assay type: organism-based, Canis lupus familiaris; details: in vivo, 1008 h
Rattus norvegicus [32] = species on record: Rattus norvegicus; assay: Toxicity in rat by 12-weeks study; assay type: organism-based; details: in vivo, 2016 h
Rattus norvegicus [33] = species on record: Rattus norvegicus; assay: Toxicity in male rat assessed as adverse effect on reproductive organ; assay type: organism-based; details: in vivo
Rattus norvegicus [34] = species on record: Rattus norvegicus; assay: Toxicity in female rat assessed as adverse effect on reproductive organ; assay type: organism-based; details: in vivo
Salmonella typhimurium [35] = assay: Mutagenicity in Salmonella typhimurium TA98 assessed as increase in number of colonies by Ames test relative to control; assay type: toxicity, organism-based; details: salmonella enterica subsp. enterica serovar typhimurium
Salmonella typhimurium [36] = assay: Mutagenicity in Salmonella typhimurium TA100 assessed as increase in number of colonies by Ames test relative to control; assay type: toxicity, organism-based; details: salmonella enterica subsp. enterica serovar typhimurium
Salmonella typhimurium [37] = assay: Mutagenicity in Salmonella typhimurium TA1535 assessed as increase in number of colonies by Ames test relative to control; assay type: toxicity, organism-based; details: salmonella enterica subsp. enterica serovar typhimurium
Salmonella typhimurium [38] = assay: Mutagenicity in Salmonella typhimurium TA1537 assessed as increase in number of colonies by Ames test relative to control; assay type: toxicity, organism-based; details: salmonella enterica subsp. enterica serovar typhimurium
[39] = Lipophilicity, log P of the compound; assay type: physicochemical; details: octanol/water
[40] = Lipophilicity, log D of the compound at pH 7.4; assay type: physicochemical; details: buffer
Hepatitis C virus [41] = assay: Antiviral activity against HCV genotype 1b infected in human Huh7 cells after 3 days by cell-based replicon assay in presence of 10% fetal bovine serum; assay type: functional, Hepacivirus hominis; details: Huh-7, 72 h
Hepatitis C virus [42] = assay: Antiviral activity against HCV genotype 1b infected in human Huh7 cells after 3 days by cell-based replicon assay in presence of 40% normal human serum; assay type: functional, Hepacivirus hominis; details: Huh-7, 72 h
[43] = Cytotoxicity against human HuH7 cells; assay type: cell-based, Huh-7
[44] = Therapeutic index, ratio of CC50 for human Huh7 cells to EC50 for HCV genotype 1b infected in human Huh7 cells; assay type: cell-based, Huh-7; details: read-out: Ratio CC50/EC50
[45] = Solubility of the compound in water at pH 2; assay type: physicochemical

## COC(=O)N[C@H](C(=O)N1CCCC1c1ncc(C#CC#Cc2ccc(-c3cnc(C4CCCN4C(=O)[C@@H](NC(=O)OC)C(C)C)[nH]3)cc2)[nH]1)C(C)C.Cl (single isomer, unassigned; 13a)
[1]
  solubility: 2200 µM
[2]
  solubility: 433 µM
[3]
  solubility: ≥ 10 µM
[4]
  solubility: ≥ 10 µM
West Nile virus
  EC50: > 26.3 µM
[5]
  CC50 at 72 h: 26.3 µM
Yellow fever virus
  EC50: > 23.5 µM
[6]
  CC50 at 72 h: 23.5 µM
Hepatitis C virus [7]
  EC50: 6.5 pM
Dengue virus
  EC50: > 28.4 µM
[8]
  CC50 at 72 h: 28.4 µM
Hepatitis C virus [9]
  EC50: 0.051 nM
Hepatitis C virus [10]
  EC50: 0.059 nM
[11]
  half-life: 3 h
[12]
  bioavailability: 65%
[13]
  half-life: 3.4 h
[14]
  half-life: 4.5 h
[15]
  half-life: 4.9 h
[16]
  bioavailability: 58%
Cytochrome P450 1A2
  IC50: > 10 µM
Cytochrome P450 2C9
  IC50: > 10 µM
Cytochrome P450 2C19
  IC50: > 10 µM
Cytochrome P450 2D6
  IC50: > 10 µM
Cytochrome P450 3A4
  IC50: > 10 µM
[17]
  remaining at 1 h, 1 µM: 70.8%
[18]
  remaining at 1 h, 1 µM: 84.7%
[19]
  remaining at 1 h, 1 µM: 81.5%
[20]
  Activity: < 10%
[21]
  LD50: > 1600 mg/kg
[22]
  LD50: 3440 mg/kg
Mus musculus [23]
  LD10: 2320.3 mg/kg
  LD16: 2565.4 mg/kg
  LD84: 4305.3 mg/kg
[24]
  LD50: 3010 mg/kg
Mus musculus [25]
  LD10: 1160.1 mg/kg
  LD16: 1565.7 mg/kg
  LD84: 4445.3 mg/kg
[26]
  LD50: 349 mg/kg
Rattus norvegicus [27]
  LD10: 228.6 mg/kg
[28]
  LD50: 412 mg/kg
Rattus norvegicus [29]
  LD10: 228.4 mg/kg
[30]
  LD50: 395 mg/kg
Rattus norvegicus [31]
  LD10: 234.2 mg/kg
Canis familiaris
  Activity: Non-toxic
  LD84: 485.6 mg/kg
Rattus norvegicus [32]
  Activity: Non-toxic
  LD84: 651.3 mg/kg
Rattus norvegicus [33]
  Activity: Non-toxic
  LD84: 593.2 mg/kg
Rattus norvegicus [34]
  Activity: Non-toxic
Salmonella typhimurium [35]
  Activity: Non-toxic
Salmonella typhimurium [36]
  Activity: Non-toxic
Salmonella typhimurium [37]
  Activity: Non-toxic
Salmonella typhimurium [38]
  Activity: Non-toxic
[39]
  logP: 4.99
[40]
  logD: 4.46
Hepatitis C virus [41]
  EC50: 3.4 pM
Hepatitis C virus [42]
  EC50: 0.021 nM
[43]
  CC50: 17.3 µM
[44]
  selectivity ratio: > 5000
[45]
  solubility: 208 µM
